pIC50: −log10 of the molar value.
test system: HL-60; assay: Inhibitory concentration against [Ca2+] ion increase in HL60 cell induced by natural sphingosine-1-phosphate; format: functional, cell-based; settings: Homo sapiens

pIC50 | SMILES
7.43 | N[C@@H](COP(=O)(O)O)[C@@H](O)/C=C/c1ccccc1
7.82 | CSc1ccc([C@H](O)[C@@H](N)COP(=O)(O)O)cc1
7.82 | CCCCCCCCCC/C=C/[C@H](O)[C@@H](N)COP(=O)(O)O
6.75 | N[C@@H](COP(=O)(O)O)[C@@H](O)c1ccccc1
7.25 | N[C@@H](COP(=O)(O)O)[C@@H](O)c1ccc([N+](=O)[O-])cc1

SMILES | pIC50
CSc1ccc([C@H](O)[C@@H](N)CBr)cc1 | 7.74
CCCCCCCCCCCCC/C=C/[C@H](O)[C@@H](N)COP(=O)(O)O | 7.51
N[C@@H](CBr)[C@@H](O)c1ccccc1 | 7.15

Source: ChEMBL document CHEMBL1141894, “Synthesis and biological properties of novel sphingosine derivatives” (Bioorg Med Chem Lett, 2005)
